Drawing on patent US8741892B2, “Compounds” (Boehringer Ingelheim International GmbH, priority 2011, dated 2014), this text covers EC50 for 40 compounds.

In this experiment the target is T1, human recombinant mGluR5 (Homo sapiens, UniProt P41594).
T1 construct: expressed in transfected cells; host or cells: HEK 293
T1 sequence (P41594 21-1212): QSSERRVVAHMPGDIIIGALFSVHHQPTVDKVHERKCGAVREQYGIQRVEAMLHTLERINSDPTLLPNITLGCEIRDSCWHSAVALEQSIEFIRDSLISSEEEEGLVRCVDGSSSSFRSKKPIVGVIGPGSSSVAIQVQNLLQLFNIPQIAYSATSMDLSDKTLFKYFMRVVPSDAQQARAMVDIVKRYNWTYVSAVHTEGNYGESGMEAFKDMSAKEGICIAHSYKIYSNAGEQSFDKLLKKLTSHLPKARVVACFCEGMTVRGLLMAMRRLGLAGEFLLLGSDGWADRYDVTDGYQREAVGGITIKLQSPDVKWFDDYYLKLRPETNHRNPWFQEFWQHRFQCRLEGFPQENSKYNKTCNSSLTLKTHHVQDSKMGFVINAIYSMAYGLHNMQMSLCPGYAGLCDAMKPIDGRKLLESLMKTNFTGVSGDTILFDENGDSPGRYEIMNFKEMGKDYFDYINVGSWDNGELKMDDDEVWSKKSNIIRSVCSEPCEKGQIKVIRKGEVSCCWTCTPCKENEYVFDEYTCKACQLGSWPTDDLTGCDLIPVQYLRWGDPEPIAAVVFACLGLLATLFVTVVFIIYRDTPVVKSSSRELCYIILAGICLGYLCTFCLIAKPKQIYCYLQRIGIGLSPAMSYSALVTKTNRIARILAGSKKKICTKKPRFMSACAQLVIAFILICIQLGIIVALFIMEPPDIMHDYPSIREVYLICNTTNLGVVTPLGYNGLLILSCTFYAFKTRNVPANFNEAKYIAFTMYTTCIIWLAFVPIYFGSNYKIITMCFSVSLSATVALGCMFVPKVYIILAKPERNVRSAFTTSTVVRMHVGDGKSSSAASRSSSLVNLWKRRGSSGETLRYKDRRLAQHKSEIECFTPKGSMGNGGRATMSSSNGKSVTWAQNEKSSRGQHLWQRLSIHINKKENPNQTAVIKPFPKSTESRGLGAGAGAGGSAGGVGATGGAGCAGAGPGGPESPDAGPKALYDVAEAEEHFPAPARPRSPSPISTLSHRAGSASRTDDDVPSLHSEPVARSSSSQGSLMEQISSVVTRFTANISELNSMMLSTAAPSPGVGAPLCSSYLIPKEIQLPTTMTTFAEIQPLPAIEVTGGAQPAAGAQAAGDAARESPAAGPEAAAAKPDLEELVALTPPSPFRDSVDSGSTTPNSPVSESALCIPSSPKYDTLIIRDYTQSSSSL
The experiment in a line: positive modulation of mGluR5, calcium based FLIPR assay. The settings on record: HEK 293 cell line expressing human recombinant mGluR5; EC50 of the modulation from peak Ca fluorescence signal after glutamate at approx. 5% basal stimulation. The method in brief:
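HEK 293 cells expressing human recombinant mGluR5, Calcium-4 dye-loaded in Ringer solution pH 7.4. Compound (1% DMSO final) preincubated 5 min, then glutamate at ~5% of maximal effect added; peak Ca2+ fluorescence gives EC50 by nonlinear regression, normalized to DMSO (100%) and 10 μM CDPPB (200%) controls.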
The EC50 is the midpoint of the concentration-response curve. As for `CCc1nnc(C2CCN(C(=O)Cn3nc(-c4ccc(F)c(C)c4)cc3CC)CC2)o1` [Example 7.02.219], the EC50 came to 209 nM.
The value for `CCc1cc(-c2ccc(F)c(C)c2)nn1CC(=O)N1CCN(c2nnc(C)o2)CC1` [Example 7.02.220] was 290 nM.
Turning to `Cc1nc2c(s1)CCN(C(=O)Cn1nc(-c3ccc(OC(F)F)cc3)cc1-c1ccccc1)CC2` [Example 7.02.221], the EC50 stood at 4 nM.
With `Cc1nc2c(s1)CN(C(=O)Cn1nc(-c3ccc(OC(F)F)cc3)cc1-c1ccccc1)C2` [Example 7.02.222], the EC50 is 23 nM.
Next, `Cc1nc2c(o1)CN(C(=O)Cn1nc(-c3ccc(OC(F)F)cc3)cc1-c1ccccc1)C2` [Example 7.02.223]: 13 nM; `Cc1nc(N2CCN(C(=O)Cn3nc(-c4ccc(OC(F)F)cc4)cc3-c3ccccc3)CC2)no1` [Example 7.02.224]: 2 nM; `Cc1nnc(N2CCN(C(=O)Cn3nc(-c4ccc(OC(F)F)cc4)cc3-c3ccccc3)CC2)o1` [Example 7.02.225]: 17 nM.
Regarding `Cc1cnc(N2CCN(C(=O)Cn3nc(-c4ccc(OC(F)F)cc4)cc3-c3ccccc3)CC2)o1` [Example 7.02.226], the concentration giving a half-maximal response (EC50) was determined as 11 nM.
Turning to `COCc1nnc(C2CCN(C(=O)Cn3nc(-c4ccc(F)c(C)c4)cc3-c3ccccc3)CC2)o1` [Example 7.02.227], the concentration giving a half-maximal response (EC50) was 35 nM.
For the compound `CCc1cc(-c2ccc(F)c(C)c2)nn1CC(=O)N1CCC(c2nnc(COC)o2)CC1` [Example 7.02.228], the concentration for a half-maximal effect (EC50) was 398 nM.
For `Cc1cc(-c2cc(-c3ccccc3)n(CC(=O)N3Cc4cccnc4C3)n2)ccc1F` [Example 7.02.229], the EC50 is 31 nM.
Turning to `CCc1cc(-c2ccc(F)c(C)c2)nn1CC(=O)N1Cc2cccnc2C1` [Example 7.02.230], the EC50 was determined as 878 nM.
For `Cc1nc2n(n1)CCN(C(=O)Cn1nc(-c3ccc(F)c(C)c3)cc1-c1ccccc1)CC2` [Example 7.02.231], the EC50 came to 19 nM.
Turning to `COc1ccc(-c2cc(-c3ccccc3)n(CC(=O)N3CCN(c4noc(C)n4)CC3)n2)cc1C` [Example 7.02.232], the concentration giving a half-maximal response (EC50) was 104 nM.
As for `COc1ccc(-c2cc(-c3ccccc3)n(CC(=O)N3Cc4nc(C)sc4C3)n2)cc1C` [Example 7.02.233], the EC50 turned out to be 280 nM.
Take `Cc1nnc(N2CCN(C(=O)Cn3nc(-c4ccc(OC(F)F)cn4)cc3-c3ccccc3)CC2)o1` [Example 7.02.234]: the EC50 turned out to be 200 nM.
In the case of `Cc1nc(N2CCN(C(=O)Cn3nc(-c4ccc(OC(F)F)cn4)cc3-c3ccccc3)CC2)no1` [Example 7.02.235], the EC50 is 30 nM.
Consider `Cc1nc2c(s1)CCN(C(=O)Cn1nc(-c3ccc(OC(F)F)cn3)cc1-c1ccccc1)CC2` [Example 7.02.236], for which the EC50 turned out to be 69 nM.
On to `Cc1nc2c(s1)CN(C(=O)Cn1nc(-c3ccc(OC(F)F)cn3)cc1-c1ccccc1)C2` [Example 7.02.237], for which the 50% effective concentration (EC50) was 111 nM.
On to `CCc1cc(-c2ccc(C)c(F)c2)nn1CC(=O)N1CCc2nc(C)sc2CC1` [Example 7.02.238], for which the EC50 was determined as 146 nM.
On to `CCc1cc(-c2ccc(C)c(F)c2)nn1CC(=O)N1Cc2nc(C)sc2C1` [Example 7.02.239], for which the EC50 turned out to be 842 nM.
Consider `COc1ccc(-c2cc(-c3ccccc3)n(CC(=O)N3CCc4nc(C)sc4CC3)n2)cc1C` [Example 7.02.240], for which the EC50 is 85 nM.
As to `COc1ccc(-c2cc(-c3ccccc3)n(CC(=O)N3CCc4nc(C)sc4CC3)n2)cc1C` [Example 7.02.241], the EC50 stood at 76 nM.
Next, `Cc1cc(-c2cc(-c3ccccc3)n(CC(=O)N3CCN(C(=O)Oc4ccccc4)CC3)n2)ccc1F` [Example 7.02.242]: 45 nM; `Cc1nc2c(o1)CN(C(=O)Cn1nc(-c3ccc(OC(F)F)cn3)cc1-c1ccccc1)C2` [Example 7.02.244]: 48 nM; `CCc1cc(-c2ccc(C)c(F)c2)nn1CC(=O)N1Cc2nc(C)oc2C1` [Example 7.02.245]: 236 nM.
Consider `COc1ccc(-c2cc(-c3ccccc3)n(CC(=O)N3Cc4nc(C)oc4C3)n2)cc1C` [Example 7.02.246], for which the concentration giving a half-maximal response (EC50) worked out at 62 nM.
For the compound `CCCc1cc(-c2ccc(F)c(C)n2)nn1CC(=O)N1CCc2nc(C)sc2CC1` [Example 7.02.247], the 50% effective concentration (EC50) was determined as 172 nM.
On to `CCCc1cc(-c2ccc(F)c(C)n2)nn1CC(=O)N1Cc2nc(C)sc2C1` [Example 7.02.248], for which the EC50 is 290 nM.
As for `CCCc1cc(-c2ccc(F)c(C)n2)nn1CC(=O)N1Cc2nc(C)oc2C1` [Example 7.02.249], the EC50 turned out to be 184 nM.
Next, `Cc1nnc(N2CCN(C(=O)Cn3nc(-c4ccc(C)c(F)c4)cc3-c3ccccc3)CC2)o1` [Example 7.02.250]: 65 nM.
Take `Cc1nc2c(s1)CCN(C(=O)Cn1nc(-c3ccc(C)c(F)c3)cc1-c1ccccc1)CC2` [Example 7.02.251]: the EC50 amounted to 34 nM.
For the compound `Cc1nc2c(s1)CN(C(=O)Cn1nc(-c3ccc(C)c(F)c3)cc1-c1ccccc1)C2` [Example 7.02.252], the EC50 turned out to be 69 nM.
Next, `Cc1nc2c(o1)CN(C(=O)Cn1nc(-c3ccc(C)c(F)c3)cc1-c1ccccc1)C2` [Example 7.02.253]: 41 nM; `CCc1nc2c(o1)CN(C(=O)Cn1nc(-c3ccc(F)c(C)c3)cc1-c1ccccc1)C2` [Example 7.02.255]: 7 nM.
As to `CCc1nc2c(o1)CN(C(=O)Cn1nc(-c3ccc(F)c(C)c3)cc1CC)C2` [Example 7.02.256], the EC50 was 11 nM.
The value for `Cc1nc2c(o1)CN(C(=O)Cn1nc(-c3ccc(C(F)F)cc3)cc1-c1ccccc1)C2` [Example 7.02.257] was 16 nM; that for `Cc1nnc(N2CCN(C(=O)Cn3nc(-c4ccc(C(F)F)cc4)cc3-c3ccccc3)CC2)o1` [Example 7.02.258] was 31 nM; that for `Cc1nc2c(s1)CCN(C(=O)Cn1nc(-c3ccc(C(F)F)cc3)cc1-c1ccccc1)CC2` [Example 7.02.259] was 10 nM.
With `Cc1nc2c(s1)CN(C(=O)Cn1nc(-c3ccc(C(F)F)cc3)cc1-c1ccccc1)C2` [Example 7.02.260], the EC50 came to 26 nM.
